Activity calls are given as the source filed them.
How the values were obtained:
[1] = Fluorescence polarization-based biochemical high throughput dose response assay for activators of the Protein Kinase A-R2B (PKA-R2B) complex. [Related pubchem assays (depositor defined):AID504700, AID504704, AID504796, AID504797]
[2] = Fluorescence polarization-based biochemical high throughput dose response assay for activators of the Protein Kinase A-R1A (PKA-R1A) complex. [Related pubchem assays (depositor defined):AID504704, AID504707, AID504799, AID504800]
[3] = target: Voltage-gated inwardly rectifying potassium channel KCNH2 (Homo sapiens, UniProt Q12809); settings: Potency;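 also: confirmatory quantitative high-throughput screen measuring inhibition of hERG channel activity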
[4] = target: T1, Ubiquitin-conjugating enzyme E2 N (Homo sapiens, UniProt P61088); assay type: functional;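 also: Dose-response confirmation in a TR-FRET assay detecting UBC13-driven polyubiquitin chain formation, inhibition measured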
T1 sequence (P61088 whole entry): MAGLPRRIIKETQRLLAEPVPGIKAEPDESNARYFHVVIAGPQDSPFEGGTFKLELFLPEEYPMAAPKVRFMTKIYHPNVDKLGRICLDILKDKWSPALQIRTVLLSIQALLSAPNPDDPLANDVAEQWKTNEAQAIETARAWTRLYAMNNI

[5] = test system: A-375; test: MITF: Counter assay: A375 proliferation Measured in Cell-Based System Using Plate Reader - 2084-03_Inhibitor_Dose_DryPowder_Activity. [Related pubchem assays (depositor defined):AID488944]; assay type: functional; settings: Homo sapiens
[6] = growth suppression of beta-catenin-knockout colon cells, dose response, cell-based, HCT116, human colon tumor (AID 1045); assay type: functional;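 also: HCT116 colon tumor cells with beta catenin knocked out; cells exposed to compound for 60 hours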
[7] = growth suppression of PTEN-null colon cells, dose response, cell-based, HCT116 PTEN knockout (AID 1047); assay type: functional;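 also: HCT116 colon tumor cells with PTEN knocked out; cells exposed to compound for 60 hours before readout; potency for loss of cell viability measured by luminescence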
[8] = target: T2, Microphthalmia-associated transcription factor (Homo sapiens, UniProt O75030); test: TRPM1 promoter luciferase signal decrease, dose response, MITF inhibitor project, cell-based, SK-MEL-5, cherry-picked, set 3 (AID 493073); assay type: functional
T2 sequence (O75030 whole entry): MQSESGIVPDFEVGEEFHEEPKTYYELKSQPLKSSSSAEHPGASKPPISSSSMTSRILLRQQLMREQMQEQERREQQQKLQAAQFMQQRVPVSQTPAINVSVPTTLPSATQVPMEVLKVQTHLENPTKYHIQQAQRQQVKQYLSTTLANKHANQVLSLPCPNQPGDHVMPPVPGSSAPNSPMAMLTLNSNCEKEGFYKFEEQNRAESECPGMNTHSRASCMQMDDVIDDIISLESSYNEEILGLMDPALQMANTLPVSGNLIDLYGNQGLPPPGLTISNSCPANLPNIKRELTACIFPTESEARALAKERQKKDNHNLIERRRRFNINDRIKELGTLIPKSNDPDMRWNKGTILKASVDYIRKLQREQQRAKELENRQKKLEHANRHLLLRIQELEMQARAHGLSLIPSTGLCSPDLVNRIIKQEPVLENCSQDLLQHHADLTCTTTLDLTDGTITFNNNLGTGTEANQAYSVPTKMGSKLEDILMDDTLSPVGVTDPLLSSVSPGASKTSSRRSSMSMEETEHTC

[9] = target: T3, Polyadenylate-binding protein 1 (Homo sapiens, UniProt P11940); test: PABP1 MLLE–PAM2 binding inhibitor potency, dose response, biochemical, fluorescence polarization, FITC-PAM2 peptide (AID 602259); assay type: functional; settings: read-out: IC50_Mean
[10] = test system: HEK293; test: cells; settings: Homo sapiens
[11] = target: Beta-galactosidase (Escherichia coli, UniProt Q8VNN2); test: beta-galactosidase enzyme inhibitors and activators, dose response, artefact control for CCR6 antagonist project, biochemical, E. coli enzyme, set 3 (AID 504712); assay type: functional
[12] = target: T3, Polyadenylate-binding protein 1; test: PABP1 MLLE–PAM2 interaction inhibitors, dose response, miRNA deadenylation inhibitor project, biochemical, fluorescence polarization, Cy5-PAM2 peptide, secondary (AID 602260); assay type: functional; settings: read-out: IC50_Mean
[13] = test system: HEK293; test: cells; settings: Homo sapiens; remark: listed apart in the source

T3 sequence (P11940 whole entry): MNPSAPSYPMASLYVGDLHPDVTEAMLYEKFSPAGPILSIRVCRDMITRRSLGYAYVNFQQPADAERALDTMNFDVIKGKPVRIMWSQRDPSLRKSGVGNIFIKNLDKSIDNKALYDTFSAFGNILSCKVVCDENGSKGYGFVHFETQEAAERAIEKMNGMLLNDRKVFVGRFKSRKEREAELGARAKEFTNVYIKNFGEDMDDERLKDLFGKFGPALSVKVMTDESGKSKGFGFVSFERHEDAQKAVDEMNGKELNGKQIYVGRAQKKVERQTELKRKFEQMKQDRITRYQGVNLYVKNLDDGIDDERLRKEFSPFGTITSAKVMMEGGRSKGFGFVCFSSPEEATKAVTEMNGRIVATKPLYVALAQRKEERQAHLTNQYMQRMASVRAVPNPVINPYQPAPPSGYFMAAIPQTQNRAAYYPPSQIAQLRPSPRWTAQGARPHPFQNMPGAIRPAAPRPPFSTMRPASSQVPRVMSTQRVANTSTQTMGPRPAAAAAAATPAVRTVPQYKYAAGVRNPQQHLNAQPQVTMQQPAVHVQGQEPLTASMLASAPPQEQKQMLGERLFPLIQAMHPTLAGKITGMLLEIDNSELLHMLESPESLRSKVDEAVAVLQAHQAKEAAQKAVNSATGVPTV
Sequence of Beta-galactosidase (Q8VNN2 whole entry): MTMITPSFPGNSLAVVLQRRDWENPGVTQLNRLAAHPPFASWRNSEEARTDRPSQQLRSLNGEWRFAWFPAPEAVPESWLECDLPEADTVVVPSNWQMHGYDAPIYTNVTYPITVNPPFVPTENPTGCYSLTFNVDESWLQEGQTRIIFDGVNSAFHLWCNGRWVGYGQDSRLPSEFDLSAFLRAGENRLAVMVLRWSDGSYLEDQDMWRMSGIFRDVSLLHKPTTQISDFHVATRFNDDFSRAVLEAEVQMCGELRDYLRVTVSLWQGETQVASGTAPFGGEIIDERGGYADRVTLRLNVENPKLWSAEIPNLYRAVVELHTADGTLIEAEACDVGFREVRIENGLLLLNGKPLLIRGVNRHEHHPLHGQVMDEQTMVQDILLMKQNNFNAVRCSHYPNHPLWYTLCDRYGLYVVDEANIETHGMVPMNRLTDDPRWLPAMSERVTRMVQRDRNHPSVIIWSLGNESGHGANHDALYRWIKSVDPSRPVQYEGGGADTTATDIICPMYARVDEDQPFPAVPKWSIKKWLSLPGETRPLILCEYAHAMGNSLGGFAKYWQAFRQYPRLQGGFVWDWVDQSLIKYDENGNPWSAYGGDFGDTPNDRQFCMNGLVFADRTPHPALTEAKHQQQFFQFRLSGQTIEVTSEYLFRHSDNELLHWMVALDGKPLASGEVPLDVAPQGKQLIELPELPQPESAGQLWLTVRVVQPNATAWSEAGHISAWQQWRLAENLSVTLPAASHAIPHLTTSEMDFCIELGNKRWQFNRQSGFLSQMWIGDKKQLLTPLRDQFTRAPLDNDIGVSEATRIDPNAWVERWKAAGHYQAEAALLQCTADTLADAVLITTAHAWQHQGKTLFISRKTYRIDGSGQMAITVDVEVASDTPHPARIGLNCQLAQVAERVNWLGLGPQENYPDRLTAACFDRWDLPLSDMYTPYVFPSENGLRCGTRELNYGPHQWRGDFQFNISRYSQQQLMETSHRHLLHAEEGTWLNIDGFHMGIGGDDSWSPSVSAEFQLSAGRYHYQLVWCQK
Sequence of Voltage-gated inwardly rectifying potassium channel KCNH2 (Q12809 whole entry): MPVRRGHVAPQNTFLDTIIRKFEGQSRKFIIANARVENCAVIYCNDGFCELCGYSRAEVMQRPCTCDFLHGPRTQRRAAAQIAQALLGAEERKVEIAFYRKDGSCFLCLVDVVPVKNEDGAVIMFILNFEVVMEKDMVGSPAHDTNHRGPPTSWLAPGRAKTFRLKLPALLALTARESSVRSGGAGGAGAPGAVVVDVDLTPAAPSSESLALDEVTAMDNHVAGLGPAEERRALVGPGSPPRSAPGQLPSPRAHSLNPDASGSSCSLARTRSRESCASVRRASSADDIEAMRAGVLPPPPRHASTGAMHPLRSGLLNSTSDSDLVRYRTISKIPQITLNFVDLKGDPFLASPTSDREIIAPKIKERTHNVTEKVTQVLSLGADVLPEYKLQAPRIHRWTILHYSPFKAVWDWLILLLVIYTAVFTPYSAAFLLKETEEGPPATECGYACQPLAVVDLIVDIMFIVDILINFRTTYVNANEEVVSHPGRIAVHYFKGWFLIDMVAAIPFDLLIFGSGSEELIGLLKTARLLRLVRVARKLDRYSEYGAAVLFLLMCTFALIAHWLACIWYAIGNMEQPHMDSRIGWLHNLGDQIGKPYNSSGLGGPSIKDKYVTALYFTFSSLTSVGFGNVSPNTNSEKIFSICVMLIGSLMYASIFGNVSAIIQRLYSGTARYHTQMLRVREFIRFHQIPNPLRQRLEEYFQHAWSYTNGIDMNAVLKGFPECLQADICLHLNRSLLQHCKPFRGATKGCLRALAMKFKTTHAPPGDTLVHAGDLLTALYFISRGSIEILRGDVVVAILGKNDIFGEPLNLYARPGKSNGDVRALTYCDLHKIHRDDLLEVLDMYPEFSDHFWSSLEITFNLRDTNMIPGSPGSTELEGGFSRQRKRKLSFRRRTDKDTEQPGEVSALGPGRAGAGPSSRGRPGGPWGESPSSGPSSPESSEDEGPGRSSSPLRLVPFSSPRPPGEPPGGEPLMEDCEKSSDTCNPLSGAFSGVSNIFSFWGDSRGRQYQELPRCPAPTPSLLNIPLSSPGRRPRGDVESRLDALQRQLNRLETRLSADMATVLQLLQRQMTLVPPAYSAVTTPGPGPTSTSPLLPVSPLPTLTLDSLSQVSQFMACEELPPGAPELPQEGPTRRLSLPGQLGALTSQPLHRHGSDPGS

## CCCC(=O)Nc1ncnc2c1ncn2[C@@H]1O[C@@H]2COP(=O)(O)O[C@H]2[C@H]1OC(=O)CCC
[1]
  EC50: 11.7 µM (inactive)
[2]
  EC50: 12.3 µM (inactive)

## C/C=C(/C)C(=O)O[C@H]1C(C)=C2[C@H]([C@@H]1OC(=O)CCCCCCC)[C@@](C)(OC(C)=O)C[C@@H](OC(=O)CCC)[C@@]1(O)[C@H]2OC(=O)[C@@]1(C)O
[3]
  AC50: 22.4 µM (inconclusive)

## COc1ccc(-c2nn(-c3ccccc3)cc2/C=N/N=C(N)N)cc1OC
[4]
  IC50: > 20 µM (inactive)
[5]
  AC50: 17.4 µM (active)
[6]
  EC50: 4.78 µM (active)
[7]
  EC50: 4.55 µM (active)
[8]
  AC50: 14.6 µM (active)

## CN(C)CCCN1C(=O)c2cccc3c([N+](=O)[O-])ccc(c23)C1=O
[9]
  IC50: 60.1 µM (inactive)
[10]
  EC50: > 59.6 µM (inactive)
[11]
  IC50: > 66.6 µM (inactive)
[12]
  IC50: > 66 µM (inactive)
[13]
  EC50: > 59.6 µM (inactive)

From ChEMBL document CHEMBL1201862, “PubChem BioAssay data set” (2004)
